Measured values: US10538487B2, “Sulfonylureas and related compounds and use of same” (priority 2015, dated 2020)

Experiment: Half life of CRID3 in mouse (stated in description)
Assay type: in vivo

In the case of CC(C)(O)c1coc(S(=O)(=O)NC(=O)Nc2c3c(cc4c2CCC4)CCC3)c1 [CRID3], the half life is reported as 3.2 h.
